The values below come from EP4733301A1 (priority 2023, dated 2025).

Data set [1] concerns 4T1-FAP cells. Briefly: CCK-8 cell viability assay (cytotoxicity of MMAE and NAPC-ADC). Type of data set: cell-based, Mouse. The note with it: 72 hour incubation. As to the method: Cell viability was assessed using CCK-8 assay. Each experiment was performed in triplicate. To detect cytotoxicity of MMAE and NAPC-ADC, 4T1-FAP cells were seeded at 5×10^4 /mL in 96-well plates in 200 µL rmi-1640 medium containing 10% FBS and 1% penicillin/streptomycin, incubated at 37 °C in a 5% CO2 incubator for 24 hours, then incubated with different concentrations of MMAE and NAPC-ADC for 72 hour, and blank medium containing CCK-8 at a final concentration of 0.5 mg/mL was added. Incubated at 37 °C, 5% CO2 for 2 hours, absorbance was measured at 450 nm. The absorbance of treated cells was compared to that of the control group, whose viability was set at 100%.
On the technique in general: Tetrazolium dyes change colour on reduction, which living cells bring about.

The nature of data set [2]: X-ray-induced MeRho release from NAPC-MeRho in PB (fluorescence, UPLC). The settings on record: 10 µM, gradient dose 0 to 60 Gy. Type of data set: physicochemical. The method, then: As a representative example, the detailed procedure for X-ray-induced reduction of Compound 1 is described below. A stock solution of Compound 1 (10 mM in DMSO) was diluted in PB (0.02 M, pH 7.4) to a final concentration of 10 µM. Solutions were deoxygenated using the aforementioned deoxygenation step prior to X-ray irradiation from 0 to 60 Gy. Reaction mixtures were analyzed using UPLC and a fluorescence spectrometer, and amount of product release was quantified via standard curves.
The elution program for Compounds 1-9 and NAPC-MeRho was Method a: H2O + 5% ACN (0 min)-95% H2O + 5% ACN (0.2 min)-5% H2O + 95% ACN (2.8 min)-5% H2O + 95% ACN (2.9 min)-95% H2O + 5% ACN (3.0 min)-95% H2O + 5% ACN (4.0 min). Injection volume: 10 µL.
The inventors performed proof-of-concept for a radiation-responsive fluorescent probe NAPC-MeRho (FIG. 13), designed for quantitative analysis of radiation-induced release. […] Under physiological conditions, irradiating 10 µM NAPC-MeRho with a gradient dose from 0 to 60 Gy caused fluorescence intensity to increase in a linear manner (FIG. 14 and FIG. 15), and UPLC spectra determined a G-value for MeRho release of 140 nM/Gy (FIG. 15). To test whether the radiation reduction reaction can occur in living cells without interference, stability to biological reducing agents and cytotoxicity to different cell lines were evaluated. […]

Data set [3] is classed as physicochemical. As to the method: 20 µM NAPC-MeRho was mixed with an equal volume of 2 mM sodium ascorbate solution, incubated and detected at different time points using a fluorescence spectrometer and UPLC-MS. Stability test results in cysteine and γ-glutathione solutions were the same.
(§1) The inventors performed proof-of-concept for a radiation-responsive fluorescent probe NAPC-MeRho (FIG. 13), designed for quantitative analysis of radiation-induced release. The NAPC linker selectively responds to e^-aq generated by X-rays, where C-O bond cleavage of the carbamate occurs, followed by decarboxylation to release fluorescent MeRho (FIG. 13). Under physiological conditions, irradiating 10 µM NAPC-MeRho with a gradient dose from 0 to 60 Gy caused fluorescence intensity to increase in a linear manner (FIG. 14 and FIG. 15), and UPLC spectra determined a G-value for MeRho release of 140 nM/Gy (FIG. 15). To test whether the radiation reduction reaction can occur in living cells without interference, stability to biological reducing agents and cytotoxicity to different cell lines were evaluated. […] VcNa at pH 7.4, and cell viability with 10 µM NAPC-MeRho was greater than 95%.

Data set [4] concerns 4T1-FAP, HT1080-FAP and U87-MG cells. It is filed as cell-based. The note with it: 10 µM NAPC-MeRho, different cell lines. As to the method:
as §1
Cell viability was assessed using CCK-8 assay. Each experiment was performed in triplicate. […] Incubated at 37 °C, 5% CO2 for 2 hours, absorbance was measured at 450 nm. The absorbance of treated cells was compared to that of the control group, whose viability was set at 100%.

The test system of data set [5] is 4T1-FAP cells. Put plainly: Confocal fluorescence imaging of radiation-induced MeRho release in cells. Type of data set: cell-based, Mouse. The settings on record: 10 µM. The method, then:
(§2) Typically, cells were seeded at a density of 2×10^5 cells/mL in 35-mm confocal dishes and cultured under hypoxic conditions in an incubator containing 5% CO2 at 37 °C for 24 hours. A stock solution of NAPC-MeRho (10 mM) was prepared in DMSO. Attached cells were washed twice with PBS before adding the fluorescence probe at a final concentration of 10 µM in 1 mL deoxygenated HBSS. After hypoxic incubation at 37 °C for 30 min, they were subjected to X-ray irradiation for […] (0, 4, 8, 16 Gy), and fluorescence images were taken with a laser scanning confocal microscope (Nikon, Japan). Excitation wavelength was 488 nm, fluorescence emission window was 500-530 nm. For imaging quantification, all cells on the image were set as regions of interest, and fluorescence intensity was measured using Nikon imaging software (version 4.0).
(§3) Subsequent irradiation with 4, 8, and 16 Gy presented the appearance of green fluorescence from MeRho release (FIG. 16, right lanes), with fluorescence intensity positively correlated with radiation dose (FIG. 17).

The test system of another data set is HT1080-FAP cells. The data set is described as above. Type of data set: cell-based, Human. The note with it: 10 µM, hypoxic conditions, 30 minutes, no radiation. As to the method:
as §2, §3

Another data set relates to U87MG cells. The description is as above. The settings on record: 10 µM, hypoxic conditions, 30 minutes, no radiation. It is filed as cell-based. As to the method: as §2, §3
A further data set has as its system 4T1-FAP tumors. Briefly: Radiation activation of NAPC-MeRho in tumors, fluorescence of tumor sections. It is filed as in vivo, BALB/c mice. The note with it: 20 µL of 100 µM locally injected. As to the method:
Then, when examining the reduction of NAPC-MeRho in tumor-bearing mice, 20 µL of 100 µM NAPC-MeRho in PBS was locally injected into 4T1-FAP tumors, and X-ray therapy of 4 Gy was administered 30 minutes post-injection. Due to limited green light penetration, tumors were harvested and quickly frozen, and fluorescence intensity was quantified via confocal imaging. […] Furthermore, the MeRho signal was statistically greater than the non-irradiated group (FIG. 19), providing conclusive evidence that radiation reduction reactions are feasible in vivo.

For orientation: IC50 means the midpoint of a concentration-inhibition curve.

Where “and” joins values, the source holds several entries; their conditions need not be identical. Equal entries are not always repeated. Non-standard residues stand in square brackets, D forms with d. Residues, ends and D or L forms follow the SMILES beside them. *: point of attachment. Dolaproine = CO[C@@H]([C@@H]1CCCN1)[C@@H](C)C(=O)O; Dil = CC[C@H](C)[C@H](NC)[C@@H](CC(=O)O)OC; X1 = C[C@@H](N*)[C@@H](O)c1ccccc1; NMeV = CN[C@H](C(=O)O)C(C)C

For the compound `CC[C@H](C)[C@@H]([C@@H](CC(=O)N1CCC[C@H]1[C@H](OC)[C@@H](C)C(=O)N[C@H](C)[C@@H](O)c1ccccc1)OC)N(C)C(=O)[C@@H](NC(=O)[C@@H](NC)C(C)C)C(C)C` [MMAE] (H-[NMeV]V[Dil][Dolaproine]-X1), the IC50 in the data set with 4T1-FAP cells [1] is < 1.69 nM and 1.69 nM.
`COc1ccc2c(c1)Oc1cc(NC(=O)OCc3cc[n+](C)cc3)ccc1C21OC(=O)c2ccccc21` (stereo not shown) [NAPC-MeRho]: in data set [2], the “G-value for MeRho release” value is reported as 140 nM/Gy. In addition, the “stability to reducing agent VcNa” value in data set [3] (10 µM, 100 eq. VcNa, pH 7.4) was “highly stable”. Besides, the “stability in cysteine and γ-glutathione solutions” value in data set [3] (compared with result in sodium ascorbate solution) was “the same”. Further, the cell viability result in data set [4] is on record as “greater than 95%”. In addition, the “spontaneous release of MeRho” value in the data set with 4T1-FAP cells [5] (hypoxic conditions, 30 minutes, no radiation) is reported as “no spontaneous release of MeRho”; in the data set with HT1080-FAP cells, “no spontaneous release of MeRho”; in the data set on U87MG cells, “no spontaneous release of MeRho”. Besides, the “increase of fluorescence intensity” value is 14.4 fold in the data set on 4T1-FAP cells [5] (4 Gy radiation), 27.9 fold in the data set on 4T1-FAP cells [5] (8 Gy radiation) and 54.5 fold in the data set with 4T1-FAP cells [5] (16 Gy radiation). For the same compound, the “fluorescence signal in tumor sections” value is listed as “significantly increased” with 4T1-FAP tumors (4 Gy X-ray 30 minutes post-injection) and “limited fluorescence signal” with 4T1-FAP tumors (NAPC-MeRho only).
